Reference: PubChem BioAssay AID2060887 (Molecular Pharmacology Branch, DTP, NCI, 2025)

Test system: 782815-120-R-J1-PDC complex spheroid viability
Test: Anticancer human tumor 782815-120-R-J1-PDC patient-derived colon adenocarcinoma cell line growth inhibition [RAS]
Conditions: for IC50: curve of first compound; for viability, T/C: stronger effect = lower value
Source text: RAS pathway inhibitors in Combinations in Complex Spheroids
A high-throughput screen of multi-cell type tumor spheroids was designed to identify active combinations of RAS pathway inhibitors and targeted small molecules. Complex spheroids include a stromal component modeled by human endothelial cells (HUVEC) and fibroblasts modeled by human mesenchymal stem cells (MSCs). The concentration ranges selected for each drug and investigational agent were based upon clinically achievable concentrations if the clinical Cmax of the agent was known.
Compounds. The drugs and investigational agents: abemaciclib (NSC768073), cobimetinib (NSC768068), divarasib (GDC6063, NSC841802), docetaxel (NSC628503), GDC-1971 (RLY-1971, NSC841576), gemcitabine (NSC613327), inavolisib (NSC800729), ipatasertib (NSC767898), KB-0742 (NSC834161), MRTX-1133 (NSC836407), osimertinib (NSC779217), RMC-4630 (NSC839698), RMC-6236 (NSC851965), RMC-6291 (NSC852671), Ro-3306 (NSC812927), sapanisertib (NSC764658), SN-38 (NSC673596), staurosporine (NSC755774), SY5609 (NSC837396), and tovorafenib (DAY101, NSC766906), were obtained from the National Cancer Institute (NCI) Developmental Therapeutics Program Chemical Repository. The FDA-approved anticancer drug set is available from the NCI Developmental Therapeutics Program. […] The stock solutions were prepared in dimethyl sulfoxide (DMSO, Sigma-Aldrich, St. Louis, MO, cat. D2650) at 800-fold the tested concentration and stored at -70 degrees C prior to their use. All drugs and investigational agents were tested over a range starting from a high concentration at or near the clinical Cmax and decreasing in half-log increments. If the clinical Cmax for an agent had not been determined, the highest concentration tested was 10 microM.
Cell Culture. All cells were maintained in an incubator at 37 degrees C and 5% CO2 with 95% humidity. The PDC lines were cultured according to standard operating procedures established by the NCI PDMR. All PDCs were thawed and cultured in Matrigel-coated flasks prepared with a working solution of 1X Ham's F-12 nutrient mix, without supplementation (Invitrogen, Waltham, MA, cat. 11765054), 100 U/mL penicillin-streptomycin (Invitrogen, cat. 15140122), and 2.5% Matrigel (Corning Inc., Corning, NY, cat. 354248) for the first three passages. The 362531-283-R-J2-PDC and 782815-120-R-J1-PDC lines were cultured in 6C/Colon 1B media, which includes advanced DMEM/F-12 (Thermo Fisher Scientific, cat. 12634028), 10 mM HEPES (Thermo Fisher Scientific, cat. 15630080), 1X GlutaMAX supplement (Thermo Fisher Scientific, cat. 35050061), 0.1 mg/mL primocin (InvivoGen, San Diego, CA, cat. ant-pm-2), 10% defined fetal bovine serum, heat inactivated (HyClone Laboratories Inc., Logan, UT, cat. SH30070.03HI), 50% L-WRN conditioned media (ATCC, cat. CRL-3276), 1.25 mM N-Acetyl-L-cysteine (Sigma-Aldrich, cat. A9165), 10 mM nicotinamide (Sigma-Aldrich, cat. N0636), 1X B-27 supplement (Thermo Fisher Scientific, cat. 17504044), 1X N-2 supplement (Thermo Fisher Scientific, cat. 17502048), 50 ng/mL human EGF (Thermo Fisher Scientific, cat. PHG0311), and 10 microM Y-27632 dihydrochloride (Tocris Bioscience, cat. 1254). The K12877-001-R-J1-PDC line was cultured in 6I media, which includes all 6C/Colon 1B media plus 10 ng/mL human FGF-10 (PeproTech, cat. 100-26), 1 ng/mL human FGF-2 (PeproTech, cat. 100-18B), 1 µM prostaglandin E2 (Tocris Bioscience, cat. 2296), […] hydrocortisone (Sigma-Aldrich, cat. H4001), and […] bovine insulin (Sigma-Aldrich, cat. I6634). The K86415-001-R-J1-PDC line was cultured in 6D media, which includes all 6C/Colon 1B media components minus the L-WRN conditioned media. The 485176-168-R4-J1-PDC was cultured in PANC media, which includes all 6C/Colon 1B media plus 100 ng/mL human FGF-10 (PeproTech, cat. 100-26), 500 nM SB-431542 (Selleckchem, cat. S1067), and 10 nM gastrin (Tocris Bioscience, cat. 3006). […]

[1] = second compound 0.0316 µM, first compound 0.0316 µM
[2] = second compound 0.0316 µM, first compound 0.1 µM
[3] = second compound 0.1 µM, first compound 0.0316 µM
[4] = second compound 0.1 µM, first compound 0.1 µM
[5] = second compound 0.316 µM, first compound 0.0316 µM
[6] = second compound 0.316 µM, first compound 0.1 µM
[7] = second compound 1 µM, first compound 0.0316 µM
[8] = second compound 1 µM, first compound 0.1 µM
[9] = second compound 3.16 µM, first compound 0.0316 µM
[10] = second compound 3.16 µM, first compound 0.1 µM
[11] = second compound 10 µM, first compound 0.0316 µM
[12] = second compound 10 µM, first compound 0.1 µM
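Further: spheroids exposed to compounds for 7 days before reading.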
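Wherever viability, T/C is given: 100% = DMSO vehicle control viability.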

For `CC(C)n1nc(-c2ccc3oc(N)nc3c2)c2c(N)ncnc21` + C#Cc1c(F)ccc2cc(O)cc(-c3ncc4c(N5CC6CCC(C5)N6)nc(OCC56CCCN5CC(F)C6)nc4c3F)c12, the IC50 (second compound 0.0316 µM) was > 0.1 µM, the IC50 (second compound 0.1 µM) was > 0.1 µM and the IC50 (second compound 0.316 µM) was > 0.1 µM. The IC50 (second compound 1 µM) was > 0.1 µM, the IC50 (second compound 3.16 µM) was > 0.1 µM and the IC50 (second compound 10 µM) was > 0.1 µM. For the same compound, the viability, T/C (second compound 0.0316 µM, first compound 0.000316 µM) was 97%, the viability, T/C (second compound 0.0316 µM, first compound 0.001 µM) was 100% and the viability, T/C (second compound 0.0316 µM, first compound 0.00316 µM) was 105%. For the same compound, the viability, T/C (second compound 0.0316 µM, first compound 0.01 µM) was 98.1%, the viability, T/C [1] was 91.8% and the viability, T/C [2] was 85.2%. The viability, T/C (second compound 0.1 µM, first compound 0.000316 µM) was 99.1%, the viability, T/C (second compound 0.1 µM, first compound 0.001 µM) was 91.4% and the viability, T/C (second compound 0.1 µM, first compound 0.00316 µM) was 101%. For the same compound, the viability, T/C (second compound 0.1 µM, first compound 0.01 µM) was 89.6%, the viability, T/C [3] was 97% and the viability, T/C [4] was 81.6%. For the same compound, the viability, T/C (second compound 0.316 µM, first compound 0.000316 µM) was 96.6%, the viability, T/C (second compound 0.316 µM, first compound 0.001 µM) was 105% and the viability, T/C (second compound 0.316 µM, first compound 0.00316 µM) was 94.5%. For the same compound, the viability, T/C (second compound 0.316 µM, first compound 0.01 µM) was 108%, the viability, T/C [5] was 88.1% and the viability, T/C [6] was 84.1%. For the same compound, the viability, T/C (second compound 1 µM, first compound 0.000316 µM) was 99.7%, the viability, T/C (second compound 1 µM, first compound 0.001 µM) was 101% and the viability, T/C (second compound 1 µM, first compound 0.00316 µM) was 88.6%. For the same compound, the viability, T/C (second compound 1 µM, first compound 0.01 µM) was 105%, the viability, T/C [7] was 93.7% and the viability, T/C [8] was 83.8%. It also gave a viability, T/C (second compound 3.16 µM, first compound 0.000316 µM) of 98.7%, a viability, T/C (second compound 3.16 µM, first compound 0.001 µM) of 101% and a viability, T/C (second compound 3.16 µM, first compound 0.00316 µM) of 93.5%. For the same compound, the viability, T/C (second compound 3.16 µM, first compound 0.01 µM) was 92.6%, the viability, T/C [9] was 92.1% and the viability, T/C [10] was 84.4%. For the same compound, the viability, T/C (second compound 10 µM, first compound 0.000316 µM) was 101%, the viability, T/C (second compound 10 µM, first compound 0.001 µM) was 95.3% and the viability, T/C (second compound 10 µM, first compound 0.00316 µM) was 85.3%. For the same compound, the viability, T/C (second compound 10 µM, first compound 0.01 µM) was 92.8%, the viability, T/C [11] was 88.8% and the viability, T/C [12] was 74.7%.

With `CC(Nc1ccc2c(c1)OCCn1cc(N3C(=O)OCC3C(F)F)nc1-2)C(N)=O` (centres undefined) + C#Cc1c(F)ccc2cc(O)cc(-c3ncc4c(N5CC6CCC(C5)N6)nc(OCC56CCCN5CC(F)C6)nc4c3F)c12 the IC50 (second compound 0.0316 µM) was > 10 µM, the IC50 (second compound 0.1 µM) was > 10 µM and the IC50 (second compound 0.316 µM) was > 10 µM. For the same compound, the IC50 (second compound 1 µM) was > 10 µM, the IC50 (second compound 3.16 µM) was > 10 µM and the IC50 (second compound 10 µM) was > 10 µM. For the same compound, the viability, T/C [1] was 94.1%, the viability, T/C [2] was 98.6% and the viability, T/C (second compound 0.0316 µM, first compound 0.316 µM) was 99.9%. It also gave a viability, T/C (second compound 0.0316 µM, first compound 1 µM) of 89.7%, a viability, T/C (second compound 0.0316 µM, first compound 3.16 µM) of 96.6% and a viability, T/C (second compound 0.0316 µM, first compound 10 µM) of 91.8%. It also gave a viability, T/C [3] of 95.7%, a viability, T/C [4] of 102% and a viability, T/C (second compound 0.1 µM, first compound 0.316 µM) of 92.9%. It also gave a viability, T/C (second compound 0.1 µM, first compound 1 µM) of 90%, a viability, T/C (second compound 0.1 µM, first compound 3.16 µM) of 100% and a viability, T/C (second compound 0.1 µM, first compound 10 µM) of 94.1%. For the same compound, the viability, T/C [5] was 99%, the viability, T/C [6] was 99.2% and the viability, T/C (second compound 0.316 µM, first compound 0.316 µM) was 87.9%. For the same compound, the viability, T/C (second compound 0.316 µM, first compound 1 µM) was 99.8%, the viability, T/C (second compound 0.316 µM, first compound 3.16 µM) was 101% and the viability, T/C (second compound 0.316 µM, first compound 10 µM) was 94.6%. For the same compound, the viability, T/C [7] was 106%, the viability, T/C [8] was 101% and the viability, T/C (second compound 1 µM, first compound 0.316 µM) was 89%. It also gave a viability, T/C (second compound 1 µM, first compound 1 µM) of 97.2%, a viability, T/C (second compound 1 µM, first compound 3.16 µM) of 87.7% and a viability, T/C (second compound 1 µM, first compound 10 µM) of 103%. The viability, T/C [9] was 111%, the viability, T/C [10] was 92.4% and the viability, T/C (second compound 3.16 µM, first compound 0.316 µM) was 97.8%. It also gave a viability, T/C (second compound 3.16 µM, first compound 1 µM) of 87.4%, a viability, T/C (second compound 3.16 µM, first compound 3.16 µM) of 97.5% and a viability, T/C (second compound 3.16 µM, first compound 10 µM) of 95.4%. For the same compound, the viability, T/C [11] was 102%, the viability, T/C [12] was 95.9% and the viability, T/C (second compound 10 µM, first compound 0.316 µM) was 79%. It also gave a viability, T/C (second compound 10 µM, first compound 1 µM) of 92.6%, a viability, T/C (second compound 10 µM, first compound 3.16 µM) of 89.1% and a viability, T/C (second compound 10 µM, first compound 10 µM) of 81.2%.
